Source: patent publication US20070190004A1, “Substances with a probiotic action used in deodorants” (priority 2004, published 2007)

Tests used:
[1] = test system: Staphylococcus epidermidis; assay: Growth of S. epidermidis in LB liquid culture with test substance, OD (600 nm) versus control; format: cell-based; details: for Growth effect, promoting or inhibiting factor compared to the control: S. epidermidis
Protocol: (§1) From liquid precultures of S. epidermidis and S. hominis, cultures in LB medium with an optical density OD (600 nm) of 0.05 were inoculated. In parallel to the controls (without the addition of cells or extract), in each case 2 cultures were treated with 1% plant extract and the growth was documented over 30 h by reference to the OD measurement. After 30 h, the difference in the OD of the cultures with extract additive to the corresponding controls (without extract additive, corrected by the value without cells) was determined.
(§2) From liquid precultures of S. epidermidis and S. hominis, cultures in LB medium with an optical density OD (600 nm) of 0.05 were inoculated. In parallel to the controls (without the addition of cells or extract), in each case 2 cultures were treated with 1% plant extract and the growth was documented over 30 h by reference to the OD measurement. After 30 h, the difference in the OD of the cultures with extract additive to the corresponding controls (without extract additive, corrected by the value without cells) was determined. Various hibiscus extracts from Cosmetochem were used, namely “herbasol extract unpreserved carcade in 80% PG,” “carcade (hibiscus) herbasec” and “carcade (hibiscus) herbasol extract oil-soluble.”
as §1, with “myristate),” for “extract),”, “myristate derivative” for “plant extract”, “8” for “30”, “myristate” for “extract”
(§3) From liquid precultures of S. epidermidis and S. hominis, cultures in LB medium with an optical density OD (600 nm) of 0.05 were inoculated. In parallel to the controls [without the addition of cells or ethylhexyl glycerol (Sensiva SC 50, Schülke&Mayr)], in each case 2 cultures were treated with 0.1% ethylhexyl glycerol and the growth was documented over 24 h by reference to the OD measurement. After 4 h, 8 h and 24 h, the difference in the OD of the cultures with ethylhexyl glycerol to the corresponding controls (without extract additive, corrected by the value without cells) was determined.

[2] = test system: Staphylococcus hominis; assay: Growth of S. hominis in LB liquid culture with test substance, OD (600 nm) versus control; format: cell-based; details: for Growth effect, promoting or inhibiting factor compared to the control: S. hominis
Protocol: as §1, §2
as §1, with “myristate),” for “extract),”, “myristate derivative” for “plant extract”, “8” for “30”, “myristate” for “extract”
as §3

[3] = 1% myristate derivative, after 8 h, LB medium, OD 600 nm

| SMILES | Effect on growth of S. epidermidis (in words) ([1]; 1% myristate derivative, 8 h) | Growth effect, promoting or inhibiting factor compared to the control [1, 3] | Effect on growth of S. hominis (in words) ([2]; 1% myristate derivative, 8 h) | Growth effect, promoting or inhibiting factor compared to the control [2, 3] | Growth effect, promoting or inhibiting factor compared to the control ([1]; 0.1% ethylhexyl glycerol, 4 h) | Growth effect, promoting or inhibiting factor compared to the control ([1]; 0.1% ethylhexyl glycerol, 8 h) | Growth effect, promoting or inhibiting factor compared to the control ([1]; 0.1% ethylhexyl glycerol, 24 h) | Effect on growth of S. hominis (in words) ([2]; 0.1% ethylhexyl glycerol, up to 24 h) | Growth effect, promoting or inhibiting factor compared to the control ([2]; 0.1% ethylhexyl glycerol, 4 h) | Growth effect, promoting or inhibiting factor compared to the control ([2]; 0.1% ethylhexyl glycerol, 8 h) | Growth effect, promoting or inhibiting factor compared to the control ([2]; 0.1% ethylhexyl glycerol, 24 h) |
| --- | --- | --- | --- | --- | --- | --- | --- | --- | --- | --- | --- |
| CCCCCCCCCCCCCC(=O)OCC [Ethyl myristate, ethyl myristate] | moderate promotion of S. epidermidis | 1.44 | inhibiting action on S. hominis | 0.22 |  |  |  |  |  |  |  |
| CCCCCCCCCCCCCC(=O)OC(C)C [Isopropyl myristate, isopropyl myristate] | moderate promotion of S. epidermidis | 1.24 | inhibiting action on S. hominis | 0.50 |  |  |  |  |  |  |  |
| CCCCC(CC)COCC(O)CO (stereo not drawn) [ethylhexyl glycerol, 1-(2-Ethylhexyl) glycerol ether] |  |  |  |  | 1.06 | 1.06 | 1.10 | inhibits S. hominis | 0.87 | 0.92 | 0.76 |
